In patent publication US20090082371A1, “Treatment of Viral Disease and Cancer With Nf-kappaB Inhibitors” (priority 2005, published 2009):

How the values were obtained:
[1] = system: H1299 human lung cancer cells; test: Cancer cell growth, viable cell count by trypan blue exclusion; type: cell-based; conditions: H1299, 5 μM
Text: (§1) The tested cells include LNCAP human prostate cancer cells, MDA-MB-468 human breast cancer cells, H1299 human lung cancer cells, AGS human gastric cancer cells, HepG2 human liver cancer cells, PANC-1 human pancreatic carcinoma cells, Jurkat human acute T-cell leukemia cells, A431 human epidermoid carcinoma cells, U251 human glioma cells, NBT-II human bladder cancer cells, and Hela human cervical cancer cells.

[2] = system: NBT-II human bladder cancer cells; test: as above; type: cell-based; conditions: for inhibition at 5 µM: Homo sapiens, 144 h
Text: as §1

[3] = system: HepG2 human liver cancer cells; test: as above; type: cell-based; conditions: HepG2, 5 μM
Text: as §1

[4] = system: MDA-MB-468 human breast cancer cells; test: as above; type: cell-based; conditions: MDA-MB-468, 5 μM
Text: as §1

[5] = system: AGS human gastric cancer cells; test: as above; type: cell-based; conditions: for inhibition at 5 µM: Homo sapiens, 144 h
Text: as §1

[6] = system: Hela human cervical cancer cells; test: as above; type: cell-based; conditions: for inhibition at 5 µM: Homo sapiens, 144 h; for inhibition at 5 µM / % inhibition of cell growth: day 6, vs untreated cells
Text: as §1

[7] = system: LNCAP human prostate cancer cells; test: as above; type: cell-based
Text: as §1

[8] = system: PANC-1 human pancreatic carcinoma cells; test: as above; type: cell-based; conditions: PANC-1, 5 μM
Text: as §1

U251 human glioma cells = test: as above; type: cell-based; conditions: U251, 5 μM; for cell apoptosis: day 6
Text: as §1

[9] = system: A431 human epidermoid carcinoma cells; test: as above; type: cell-based; conditions: A431, 5 μM; for cell apoptosis: day 6; for % inhibition of cell growth: day 6, vs untreated cells
Text: as §1

[10] = system: VSV-G-enveloped HIV-Luciferase viruses (HIV-1)
[11] = system: retrovirus expressing GFP; conditions: 293T cells, tested dosages, two days after infection
Text: 293T human embryonic kidney cells were infected with the GFP-retrovirus. […] Two days later, the cells were photographed with a digital camera mounted on a microscope. […] Data represent the mean±standard deviation of three independent experiments.
Two days later, the number of infected cells from two separate experiments was counted.

[12] = system: Jurkat human acute T-cell leukemia cells; test: Cancer cell growth, viable cell count by trypan blue exclusion; type: cell-based; conditions: 5 μM
Text: as §1

cells listed in Table 1 = test: Cancer cell growth, panel of cells listed in Table 1; type: cell-based, human; conditions: 5 μM, day 6, vs untreated cells
Text: as §1

HT29 cells = test: Cancer cell growth, viable cell count by trypan blue exclusion; type: cell-based; conditions: HT29, 5 μM
[13] = Homo sapiens, 144 h, day 6, vs untreated cells
[14] = day 6, about 4×10^4 cells at start
[15] = 5 μM, day 6, about 4×10^4 cells at start
[16] = 5 μM, day 6, vs untreated cells

Molecule `COc1ccc([C@@]23Oc4cc(OC)cc(OC)c4[C@]2(O)[C@H](O)[C@H](C(=O)N(C)C)[C@H]3c2ccccc2)cc1` [rocaglamide, reference compound] has an inhibition at 5 µM ([1]; Homo sapiens, NCI-H1299, 144 h, day 6, vs untreated cells) of ~80%, an inhibition at 5 µM ([2]; day 6, vs untreated cells) of 9 to 40% and an inhibition at 5 µM [3, 13] of 9 to 40%. The cell apoptosis ([4]; day 6) was “completely cell apoptosis”, the inhibition at 5 µM ([5]; day 6, vs untreated cells) was ~50% and the inhibition at 5 µM [6] was 9 to 40%. For the same molecule, the inhibition at 5 µM [7, 13] was ~70%, the inhibition at 5 µM [8, 13] was 9 to 40% and the cell apoptosis (U251 human glioma cells) was “completely cell apoptosis”. For the same molecule, the cell apoptosis [9] was “completely cell apoptosis”, the cell deaths observed [10] was “no obvious cell deaths” and the “inhibition of HIV-1 viral infection and replication (HIV-1-induced Luciferase activity)” value (“inhibition … (HIV-1-induced Luciferase activity)” below) [10] was “showed inhibition”.

With `C=CCOc1ccc(CCNc2ncnc3ccc(N)cc23)cc1` the cell deaths observed [10] was “no obvious cell deaths”, the “inhibition … (HIV-1-induced Luciferase activity)” value [10] was “showed inhibition” and the cell deaths observed [11] was “no obvious cell deaths”.

With `COc1cc(O)c2c(c1)oc(=O)c1c3cc(O)c(O)cc3oc21` [7-Methoxy-5,11,12-trihydroxy-coumestan] the “% inhibition of cell growth” value ([1]; day 6, vs untreated cells) was ~31%, the “% inhibition of cell growth” value ([3]; day 6, vs untreated cells) was ~25% and the “% inhibition of cell growth” value ([4]; day 6, vs untreated cells) was ~10%. The “% inhibition of cell growth” value ([6]; 5 μM) was ~29% and the “% inhibition of cell growth” value [9] was “about 51%”.

In the case of `Nc1ccc2ncnc(NCCc3ccc(OCc4ccccc4)cc3)c2c1`, the cell deaths observed [10] is reported as “no obvious cell deaths”, the “inhibition … (HIV-1-induced Luciferase activity)” value [10] is reported as “showed inhibition” and the cell deaths observed [11] is reported as “no obvious cell deaths”.

For `O=C(/C=C/c1ccc(O)c(O)c1)OCCc1ccccc1` [cape, reference compound], the cell deaths observed [10] was “no obvious cell deaths” and the “inhibition … (HIV-1-induced Luciferase activity)” value [10] was “showed inhibition”.

In the case of `Nc1ccc2ncnc(NCCc3ccc(Oc4ccccc4)cc3)c2c1`, the “Treated (cell number × 10^5)” value [1, 14] is reported as 3 ± 0.2 × 10^5, the “% inhibition of cell growth” value ([1]; day 6, vs untreated cells) is reported as 52% and the “Treated (cell number × 10^5)” value [2, 15] is reported as 2.7 ± 0.1 × 10^5. The “% inhibition of cell growth” value [2, 16] was 10%, the “Treated (cell number × 10^5)” value [3, 14] was 0.8 ± 0.1 × 10^5 and the “% inhibition of cell growth” value ([3]; day 6, vs untreated cells) was 80%. For the same molecule, the “Treated (cell number × 10^5)” value [4, 14] was 5.4 ± 0.1 × 10^5, the “% inhibition of cell growth” value ([4]; day 6, vs untreated cells) was 10% and the “Treated (cell number × 10^5)” value [5, 15] was 2.1 ± 0.1 × 10^5. For the same molecule, the “% inhibition of cell growth” value [5, 16] was 10%, the “Treated (cell number × 10^5)” value [6, 15] was 1.1 ± 0.1 × 10^5 and the “% inhibition of cell growth” value ([6]; 5 μM) was 70%. For the same molecule, the “Treated (cell number × 10^5)” value [7, 15] was 0.7 ± 0.2 × 10^5, the “% inhibition of cell growth” value [7, 16] was 90% and the “Treated (cell number × 10^5)” value [8, 14] was 1.9 ± 0.1 × 10^5. The “% inhibition of cell growth” value ([8]; day 6, vs untreated cells) was 14%, the “Treated (cell number × 10^5)” value (U251 human glioma cells; [14]) was 7.2 ± 0.2 × 10^5 and the “% inhibition of cell growth” value (U251 human glioma cells; day 6, vs untreated cells) was 20%. For the same molecule, the “Treated (cell number × 10^5)” value [9, 14] was 3.2 ± 0.2 × 10^5, the “% inhibition of cell growth” value [9] was 59% and the “Treated (cell number × 10^5)” value [12, 14] was 6.3 ± 0.4 × 10^5. For the same molecule, the “% inhibition of cell growth” value ([12]; day 6, vs untreated cells) was 28%, the cell deaths observed [10] was “no obvious cell deaths” and the “inhibition … (HIV-1-induced Luciferase activity)” value [10] was “showed inhibition”. For the same molecule, the cell deaths observed [11] was “no obvious cell deaths”, the “inhibition of cell growth, range over the cancer cells of Table 1” value (cells listed in Table 1) was 10-90% and the “Treated (cell number × 10^5)” value (HT29 cells; [14]) was 1.9 ± 0.1 × 10^5. The “% inhibition of cell growth” value (HT29 cells; day 6, vs untreated cells) was 50%.

`CC1=C(O)C(=O)C=C2C1=CC=C1[C@@]2(C)CC[C@@]2(C)[C@@H]3C[C@](C)(C(=O)O)CC[C@]3(C)CC[C@]12C` [celastrol, 3-hydroxy-24-nor-2-oxo-1(10),3,5,7-friedelatetraen-29-oic Acid, reference compound] was tested, and the cell apoptosis ([12]; day 6) was “about 90%” and the cell deaths observed [10] was “no obvious cell deaths”.

`Cc1ccc(S(=O)(=O)/C=C/C#N)cc1` [BAY 11-7082, (E)3-[(4-Methylphenyl)sulfonyl]-2-propenenitrile, reference compound] was tested, and the cell apoptosis ([1]; day 6) was “completely cell apoptosis”, the inhibition at 5 µM ([2]; day 6, vs untreated cells) was 9 to 12% and the cell apoptosis ([3]; day 6) was “completely cell apoptosis”. The inhibition at 5 µM [4, 13] was 9 to 12%, the inhibition at 5 µM ([5]; day 6, vs untreated cells) was ~90% and the inhibition at 5 µM [6] was 9 to 12%. The cell apoptosis ([7]; 5 μM, day 6) was “completely cell apoptosis”, the cell apoptosis ([8]; day 6) was “completely cell apoptosis” and the cell apoptosis (U251 human glioma cells) was “completely cell apoptosis”. The cell apoptosis [9] was “completely cell apoptosis”.

With `Nc1ccc2ncnc(NCCc3ccc(OCc4ccccn4)cc3)c2c1` the cell deaths observed [10] was “no obvious cell deaths”, the “inhibition … (HIV-1-induced Luciferase activity)” value [10] was “showed inhibition” and the cell deaths observed [11] was “no obvious cell deaths”.
